Reference: paper PMC12292835, “Amylin Receptor 1 Mutagenesis Revealed a Potential Role of Calcitonin Serine 29 in Receptor Interaction” (Biomedicines, 2025)
Where a SMILES comes first, the peptide text is derived from it. The star is where a group is joined. FITC = O=C1OC2(c3ccc(O)cc3Oc3cc(O)ccc32)c2ccc(NC(=S)*)cc21

Tests used:
[1] = target: T1, amylin receptor 1 ECD with calcitonin receptor N124D mutation (Homo sapiens, UniProt O60894+P30988, N124D); assay: FP saturation binding, N124D; settings: for Average fluorescence intensity change upon receptor ECD binding: % of a free probe intensity, Mean ± S.D., max receptor 3 μM (sCT), 1 μM (AC413); for effect of mutation on binding affinity: compared with N124A, in words
T1 construct: pHLsec/hRAMP1.24–111-(GSA)3-hCTR.34–141.N124D-H6 (D-pJS006); H6 (hexahistidine) (C); made in house; host or cells: HEK293 (transient transfection, secreted, N-glycosylated)
T1 sequence (O60894 24-111): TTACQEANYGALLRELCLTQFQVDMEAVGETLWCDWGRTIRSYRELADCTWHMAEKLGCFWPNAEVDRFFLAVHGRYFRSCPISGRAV
T1 sequence (P30988 34-141 N124D): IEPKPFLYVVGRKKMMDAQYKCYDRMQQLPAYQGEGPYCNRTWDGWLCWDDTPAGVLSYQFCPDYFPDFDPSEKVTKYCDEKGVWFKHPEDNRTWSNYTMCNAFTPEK
Source text: (§1) pHLsec-based vectors were used to express wild-type and mutated amylin receptor 1 extracellular domains as secreted proteins to cell culture media. The plasmid DNA construct of the wild-type amylin receptor 1 extracellular domain, pHLsec/hRAMP1.24–111-(GSA)3-hCTR.34–141-H6 (H-pSL005) was previously described. The following DNA vector plasmids were made for this study: pHLsec/hRAMP1.24–111-(GSA)3-hCTR.34–141.D97A-H6 (D-pSL009), pHLsec/hRAMP1.24–111-(GSA)3-hCTR.34–141.D97E-H6 (D-pJS001), pHLsec/hRAMP1.24–111-(GSA)3-hCTR.34–141.D101A-H6 (D-pJJ003), pHLsec/hRAMP1.24–111-(GSA)3-hCTR.34–141.D101E-H6 (D-pJJ002), pHLsec/hRAMP1.24–111-(GSA)3-hCTR.34–141.E123A-H6 (D-pJJ004), pHLsec/hRAMP1.24–111-(GSA)3-hCTR.34–141.E123D-H6 (D-pJJ001), pHLsec/hRAMP1.24–111-(GSA)3-hCTR.34–141.N124A-H6 (D-pJS005), pHLsec/hRAMP1.24–111-(GSA)3-hCTR.34–141.N124D-H6 (D-pJS006), pHLsec/hRAMP1.24–111-(GSA)3-hCTR.34–141.N135A-H6 (D-pJW001), and pHLsec/hRAMP1.24–111-(GSA)3-hCTR.34–141.N135D-H6 (D-pJS002). The mutations were introduced to the calcitonin receptor extracellular domain by using DNA Assembly reaction. Coding sequences of the receptor expression vectors were confirmed with Sanger sequencing by Bionics (Seoul, Republic of Korea). DNA plasmid vectors were extracted and were purified from bacterial cells with NucleoBond® Extra Midi Plus kit (Macherey-Nagel, Germany). The purified DNA vectors were stored at −20 °C until their use for mammalian cell transfection.
(§2) The overall experimental procedure of reconstituting the functional amylin receptor 1 extracellular domain (ECD) as the fusion protein of RAMP1 ECD and the calcitonin receptor ECD was previously described. The wild-type and mutated amylin receptor 1 ECDs were expressed from HEK293 cells with transient transfection with polyethylenimine. The expressed receptor proteins were secreted to cell culture media for 4 days at 37 °C. The media were collected for the receptor protein purification. Initial dialysis was performed with the dialysis buffer (Tris 25 mM (pH 7.4), NaCl 150 mM, and imidazole 10 mM) overnight. […] Then, a size exclusion column chromatography (SEC) was performed with SEC column (Cytiva, HiLoad® 16/600 Superdex® 200 pg) and SEC buffer (Tris 50 mM (pH 7.4), NaCl 150 mM, and glycerol (v/v) 10%) as previously described. As the final step, the purified receptor proteins were dialyzed to storage buffer (HEPES 25 mM (pH 7.4), NaCl 150 mM, and glycerol (v/v) 50 %) and were stored at −60 °C until their use for the receptor–ligand binding assay. All purification procedures were performed at 4 °C.
Two peptide probes labeled with fluorescein isothiocyanate (FITC) were used for this study: FITC-labeled salmon calcitonin (sCT) fragment(22–32) and FITC-labeled AC413(6–25) with Y25P mutation. These peptide probes were custom-synthesized from Genscript (Piscataway, NJ, USA). These peptides were used as the probes for the receptor–ligand binding assay. These peptides were HPLC-purified with at least 85% purity by Genscript (Piscataway, NJ, USA). Mass spectrometry performed at Genscript confirmed the correct molecular mass of the synthesized peptides. The extinction coefficient of FITC (63,000 M^−1·cm^−1 at 495 nm, pH 7.0) was used to calculate the concentration of the peptides.
The overall procedure of the FP binding assay with a saturation binding format was previously described. A total of 10 nM FITC-labeled sCT(22–32) and 10 nM FITC-labeled AC413(6–25) with Y25P mutation were used for the receptor–ligand binding assay. For the saturation binding format, the non-linear regression curves were generated by using user-defined equations that were previously described for affinity calculation. FITC-labeled peptide probes were incubated for 1 h at room temperature with the purified receptor protein prior to fluorescence signal measurement. […]

[2] = target: T2, amylin receptor 1 ECD with calcitonin receptor N124A mutation (Homo sapiens, UniProt O60894+P30988, N124A); assay: FP saturation binding, N124A; settings: for Average fluorescence intensity change upon receptor ECD binding: % of a free probe intensity, Mean ± S.D., N124A, max receptor 1 μM; for decrease of binding affinity: N124A versus wild-type receptor ECD
T2 construct: pHLsec/hRAMP1.24–111-(GSA)3-hCTR.34–141.N124A-H6 (D-pJS005); H6 (hexahistidine) (C); made in house; host or cells: HEK293 (transient transfection, secreted, N-glycosylated)
T2 sequence (O60894 24-111): as the sequence (O60894 24-111) above
T2 sequence (P30988 34-141 N124A): as the sequence (P30988 34-141 N124D) above, with D91A counted along it
Source text: as §1
as §2, with “All purification procedures were performed at 4 °C.” left out
(§3) The overall procedure of the FP binding assay with a saturation binding format was previously described. […] FITC-labeled peptide probes were incubated for 1 h at room temperature with the purified receptor protein prior to fluorescence signal measurement. […]

[3] = target: T3, amylin receptor 1 ECD with calcitonin receptor D97E mutation (Homo sapiens, UniProt O60894+P30988, D97E); assay: FP saturation binding, D97E; settings: for Average fluorescence intensity change upon receptor ECD binding: % of a free probe intensity, Mean ± S.D., max receptor 3 μM (sCT), 1 μM (AC413); for effect of mutation on binding affinity: in words
T3 construct: pHLsec/hRAMP1.24–111-(GSA)3-hCTR.34–141.D97E-H6 (D-pJS001); H6 (hexahistidine) (C); made in house; host or cells: HEK293 (transient transfection, secreted, N-glycosylated)
T3 sequence (O60894 24-111): as the sequence (O60894 24-111) above
T3 sequence (P30988 34-141 D97E): as the sequence (P30988 34-141 N124D) above, with D64E, D91N counted along it
Source text: as §1
as §2, with “All purification procedures were performed at 4 °C.” left out
as §3

[4] = target: T4, amylin receptor 1 ECD with calcitonin receptor E123A mutation (Homo sapiens, UniProt O60894+P30988, E123A); assay: FP saturation binding, E123A; settings: for Average fluorescence intensity change upon receptor ECD binding: % of a free probe intensity, Mean ± S.D., E123A, max receptor 3 μM (sCT), 1 μM (AC413); for decrease of binding affinity: E123A versus wild-type receptor ECD
T4 construct: pHLsec/hRAMP1.24–111-(GSA)3-hCTR.34–141.E123A-H6 (D-pJJ004); H6 (hexahistidine) (C); made in house; host or cells: HEK293 (transient transfection, secreted, N-glycosylated)
T4 sequence (O60894 24-111): as the sequence (O60894 24-111) above
T4 sequence (P30988 34-141 E123A): as the sequence (P30988 34-141 N124D) above, with E90A, D91N counted along it
Source text: as §1
as §2, with “All purification procedures were performed at 4 °C.” left out
as §3

[5] = target: T5, amylin receptor 1 ECD with calcitonin receptor D101A mutation (Homo sapiens, UniProt O60894+P30988, D101A); assay: FP saturation binding, D101A; settings: for Average fluorescence intensity change upon receptor ECD binding: % of a free probe intensity, Mean ± S.D., max receptor 1 μM; for effect of mutation on binding affinity: in words
T5 construct: pHLsec/hRAMP1.24–111-(GSA)3-hCTR.34–141.D101A-H6 (D-pJJ003); H6 (hexahistidine) (C); made in house; host or cells: HEK293 (transient transfection, secreted, N-glycosylated)
T5 sequence (O60894 24-111): as the sequence (O60894 24-111) above
T5 sequence (P30988 34-141 D101A): as the sequence (P30988 34-141 N124D) above, with D68A, D91N counted along it
Source text: as §1
as §2, with “All purification procedures were performed at 4 °C.” left out
as §3

Row | Structure (SMILES) | Average fluorescence intensity change upon receptor ECD binding [1] [%] | effect of mutation on binding affinity [1] | effect of mutation on binding affinity ([1]; listed as AC413 fragment) | Average fluorescence intensity change upon receptor ECD binding [2] [%] | decrease of binding affinity [2] | Average fluorescence intensity change upon receptor ECD binding [3] [%] | effect of mutation on binding affinity [3] | Average fluorescence intensity change upon receptor ECD binding [4] [%] | decrease of binding affinity [4] [fold] | Average fluorescence intensity change upon receptor ECD binding [5] [%] | effect of mutation on binding affinity [5] | effect of mutation on binding affinity ([1]; listed as salmon calcitonin fragment)
1 | CC(C)C[C@H](NC(=O)[C@H](CCCNC(=N)N)NC(=O)[C@@H](NC(=O)[C@H](CC(C)C)NC(=O)[C@H](Cc1ccccc1)NC(=O)[C@H](CC(N)=O)NC(=O)[C@H](C)NC(=S)Nc1ccc2c(c1)C(=O)OC21c2ccc(O)cc2Oc2cc(O)ccc21)C(C)C)C(=O)N[C@@H](CCC(N)=O)C(=O)N[C@H](C(=O)N[C@@H](Cc1ccc(O)cc1)C(=O)N1CCC[C@H]1C(=O)N[C@@H](CCCNC(=N)N)C(=O)N[C@H](C(=O)N[C@@H](CC(N)=O)C(=O)N[C@H](C(=O)NCC(=O)N[C@@H](C)C(=O)N[C@@H](CC(N)=O)C(=O)N[C@H](C(=O)N1CCC[C@H]1C(N)=O)[C@@H](C)O)C(C)C)[C@@H](C)O)[C@@H](C)O [FITC-AC413(6–25) Y25P] ({FITC}-ANFLVRLQTYPRTNVGANTP-NH2; C-terminus assumed) | 88 ± 8 | failed to restore the decreased binding affinity | failed to restore the decreased affinity | 87 ± 2 | 8.2 fold | 68 ± 3 | not significantly changed | 77 ± 13 | 2.3 | 97 ± 3 | markedly decreased the binding affinity | 
2 | C[C@@H](O)[C@H](NC(=O)[C@H](CC(N)=O)NC(=O)[C@@H](NC(=O)[C@H](CCCNC(=N)N)NC(=O)[C@@H]1CCCN1C(=O)[C@H](Cc1ccc(O)cc1)NC(=S)Nc1ccc2c(c1)C(=O)OC21c2ccc(O)cc2Oc2cc(O)ccc21)[C@@H](C)O)C(=O)NCC(=O)N[C@@H](CO)C(=O)NCC(=O)N[C@H](C(=O)N1CCC[C@H]1C(N)=O)[C@@H](C)O [FITC-sCT(22–32)] ({FITC}-YPRTNTGSGTP-NH2; C-terminus assumed) | 77 ± 5 | fully restored the decreased binding affinity |  | 85 ± 11 | more than 10 fold | 78 ± 4 | partially restored the decreased affinity | 72 ± 1 | 4.5 | 101 ± 4 | markedly decreased the binding affinity | restored the decreased affinity
